# Data published in paper PMC6522912, “Evaluation of the published kinase inhibitor set to identify multiple inhibitors of bacterial ATP-dependent mur ligases” (Journal of Enzyme Inhibition and Medicinal Chemistry, 2019).
# Experiments:
# [1] = molecular target: E. coli MurE (Escherichia coli, UniProt P22188); experiment: Malachite green inhibition assay, MurE; format: biochemical
# Procedure: Inhibition of the Mur ligases was determined using the malachite green assay, with slight modifications.
# MurE: 50 mM Hepes, pH 8.0, 15 mM MgCl2, 0.005% Triton X-114, 60 µM meso-diaminopimelic acid, 100 µM uridine-5′-diphosphate-N-acetylmuramoyl-L-alanine-D-glutamate, 1000 µM ATP, and purified E. coli MurE[27].
# In all cases, the final concentration of DMSO was 5% (v/v). After incubation for 15 min at 37 °C, the enzyme reaction was terminated by addition of 100 µM Biomol green reagent, and the absorbance was measured at 650 nm after 5 min. All of the experiments were run in duplicate. Residual activities were calculated with respect to control assays without the tested compounds, but with the 5% DMSO carrier.
# The published kinase inhibitor set compounds were evaluated for inhibition of MurC, D and F ligases from E. coli using the Malachite green assay, which detects orthophosphate generated during enzymatic reactions. To avoid non-specific inhibition due to aggregate formation, all of the compounds were tested in the presence of detergent (0.005% Triton-X114). The data are presented as the residual activities of these Mur ligases in the presence of 100 µM of each test compound (Supporting Information Table S1). […]. The IC50 values against MurC, D, E and F were determined for the selected hit compounds – one representative compound from each structural class was chosen: compound 1[33], aza-stilbene derivative; compound 2[34], alkynyl pyrimidine; compound 3[35], pyrazolo [1,5]-b]pyridazine; compound 4[36], phenoxypyrimidine; compound 5[37], 4,6-bis-anilino-1H-pyrrolo[2,3-pyrimidine (Table 1). […]. […] Among the hits, compounds for further mechanistic studies were chosen on the basis of their ligand efficiency. Ligand efficiency quantifies the molecular properties, particularly size and lipophilicity and is used as a selection criterion for structurally different compounds as more ‘efficient’ ligands have the potential to control for the inflation of these properties[38] Thus ligand efficiencies were calculated for the four hits (Supporting Information Table S2)[39]^,[40], and compound 1 was selected as the most promising for additional studies. Additionally, regarding the data of profiled compounds in large panels of human kinase assays[41] […] To provide sufficient amounts of compound 1 for kinetic and NMR studies, it was resynthesized according to the synthetic procedures (Figure 2) described in the literature.
# [2] = molecular target: E. coli MurF (Escherichia coli, UniProt P11880); experiment: biochemical
# Chain of E. coli MurF (P11880 whole entry): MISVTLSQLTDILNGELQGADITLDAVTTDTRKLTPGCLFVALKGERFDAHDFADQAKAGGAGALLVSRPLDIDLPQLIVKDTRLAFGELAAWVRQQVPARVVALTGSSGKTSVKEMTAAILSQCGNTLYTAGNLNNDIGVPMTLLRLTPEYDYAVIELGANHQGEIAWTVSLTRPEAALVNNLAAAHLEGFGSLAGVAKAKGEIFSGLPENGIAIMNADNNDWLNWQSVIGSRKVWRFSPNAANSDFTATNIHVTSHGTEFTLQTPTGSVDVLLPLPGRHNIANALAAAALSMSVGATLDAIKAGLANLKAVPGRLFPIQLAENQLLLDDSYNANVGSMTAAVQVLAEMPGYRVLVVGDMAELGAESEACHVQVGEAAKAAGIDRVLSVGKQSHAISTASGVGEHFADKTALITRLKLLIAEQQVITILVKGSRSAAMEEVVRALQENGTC
# [3] = Table S3, aza stilbene compounds
# [4] = residual activity at 100 µM compound, Table 1
# Chain of E. coli MurE (P22188 whole entry): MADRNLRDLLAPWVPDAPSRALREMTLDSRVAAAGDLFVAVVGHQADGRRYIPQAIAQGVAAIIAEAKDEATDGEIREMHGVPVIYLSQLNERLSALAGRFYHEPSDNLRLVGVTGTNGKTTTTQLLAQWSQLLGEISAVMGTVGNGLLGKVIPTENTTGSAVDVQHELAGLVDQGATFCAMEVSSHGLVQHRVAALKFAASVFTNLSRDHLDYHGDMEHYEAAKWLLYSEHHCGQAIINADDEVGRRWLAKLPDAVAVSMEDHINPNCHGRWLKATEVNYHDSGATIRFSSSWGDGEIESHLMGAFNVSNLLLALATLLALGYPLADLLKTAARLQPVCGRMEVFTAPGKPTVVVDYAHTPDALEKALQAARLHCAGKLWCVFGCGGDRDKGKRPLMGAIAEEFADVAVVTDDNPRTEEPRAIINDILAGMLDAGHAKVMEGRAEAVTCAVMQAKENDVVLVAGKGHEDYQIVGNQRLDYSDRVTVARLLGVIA
smiles,measurement,setting,value
Cc1cc(-c2ccco2)cc(C)c1/C=C/c1cncc(-c2nn[nH]n2)c1 [Compound 1],IC50,[1],79 µM
same,RA (%) MurE,[1]; [3],49%
same,MurE RA [%],[1]; [4],49%
same,remaining activity at 100 µM,"[2]; 0.25 h, Table S1, PKIS screening, read-out: RA [%] at 100 µM MurF",26%
same,IC50,[2]; Table 1,59 µM
same,RA (%) MurF,[2]; [3],26%
same,LE (MurF),"[2]; ligand efficiency, LE = (1.37 × pIC50)/HAC",0.22
same,MurF RA [%],[2]; [4],26%
